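Values below derive from 48-hour exposures of cells grown in 96-well plates, with endpoints linearly interpolated between the two concentrations bracketing the appropriate inhibition level. Here, GI50 denotes the concentration required for 50% inhibition of growth. At the TGI there is no net growth.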 A value given as a limit tells only on which side of the number the result lay.

Experiment in all cases: NCI anticancer screen, dose series, 48 h
Experiment [1] concerns SW-620 colon.
Experiment [2] deals with NCI-H460 lung.
Experiment [3] deals with KM12 colon.
Experiment [4] has as its system NCI-H522 lung.
Experiment [5] concerns OVCAR-3 ovarian.
Experiment [6] deals with SK-MEL-2 melanoma.
Experiment [7] deals with MALME-3M melanoma.
Experiment [8] deals with T-47D breast.
The test system of experiment [9] is PC-3 prostate.
For experiment [10], the system named is MDA-MB-435.

In the case of `CCCCCCCCCC1CC(=O)OC2=C1C(=O)CCC2` (configuration not stated), the TGI in [1], in experiment [2], in experiment [3], in experiment [4], in [5] and in experiment [6] was over 100 µM each time. Moreover, the TGI in experiment [7] was over 100 µM.

Regarding `O=C(Nc1ccc(Br)c2ccccc12)c1ccc2ccccc2c1O`, the TGI in [1] turned out to be 14.8 µM; in experiment [2], 13.1 µM; in [3], 13.7 µM; in experiment [4], 6.83 µM; in experiment [5], 35.7 µM; in experiment [8] it was 14.5 µM. The figures for the TGI in [6], in [9] and in [7] were 3 µM, 6.21 µM and 9.3 µM, respectively.

As for `O=C(NC1CCC[C@H]1OC(=O)c1ccccc1)c1ccccc1` (some centres not stated), the TGI in experiment [1], in [2], in [3], in [5], in experiment [6] and in [7] was over 100 µM in each case.

Regarding `CC1(C)CC(=O)C(CC2C(=O)CCCC2=O)C(=O)C1`, the TGI in experiment [1], in experiment [2], in [3], in experiment [4], in experiment [5] and in [6] was over 100 µM in each case. The compound also came in with a TGI in experiment [7] of over 100 µM.

For `NC(=O)NNC/C(Cl)=C(\Cl)C(=O)O`, the TGI in experiment [1], in experiment [2], in experiment [3], in experiment [4], in experiment [5] and in experiment [6] was over 100 µM in each case. In addition, the TGI in experiment [7] was over 100 µM.

In the case of `COc1ccc(C(C2=C(O)CC(C)OC2=O)C2=C(O)CC(C)OC2=O)cc1` (configuration not stated), the TGI in [1], in experiment [2], in [3], in [4], in experiment [5] and in [6] was over 100 µM throughout. In addition, the TGI in experiment [7] was over 100 µM.

With `CC1C(c2ccccc2)N(C)C(c2ccccc2)C(C)C1(O)c1ccccc1` (configuration not stated), the TGI in experiment [1], in experiment [2], in experiment [3], in [4], in experiment [5] and in experiment [6] was over 100 µM each time. In experiment [7], the TGI was over 100 µM.

Turning to `CC(=O)C(CN1C(=O)c2ccccc2C1=O)C(C)=O`, the TGI in [1], in experiment [2], in [4], in experiment [5], in experiment [8] and in experiment [6] was over 100 µM in each case. Besides, the TGI in experiment [9] and in [10] was over 100 µM each time.

With `Cc1cc(-c2ccccc2)nc(Nc2cc3ccccc3[nH]2)n1`, the TGI in experiment [1], in [2], in [3], in experiment [4], in experiment [5] and in experiment [6] was over 100 µM in each case. Also, in experiment [7], the TGI was over 100 µM.

Consider `CN(C(=O)C(C)(C)C)c1ccccc1I(=O)=O`, for which the GI50 is over 100 µM in experiment [1]; over 100 µM in experiment [2]; over 100 µM in experiment [3]; 16.1 µM in experiment [4]; over 100 µM in experiment [5]; 38.3 µM in experiment [8]. In addition, the GI50 was over 100 µM in experiment [6], over 100 µM in experiment [10] and 27.4 µM in experiment [7]. Further, the TGI in [1] is over 100 µM; in experiment [2], over 100 µM; in [3], over 100 µM; in [4], 30 µM; in [5] it was over 100 µM; in experiment [8] it was over 100 µM. For the same compound, the TGI in experiment [6], in experiment [10] and in [7] was over 100 µM throughout.

As to `CCO/C=C\C12CCCC1NC(c1ccccc1)(c1ccccc1)O2` (configuration not stated), the TGI was over 100 µM in [1]; over 100 µM in experiment [2]; over 100 µM in experiment [3]; 83.3 µM in experiment [4]; 55.7 µM in experiment [5]; 45.7 µM in [6]. In addition, the TGI in experiment [7] worked out at 54.3 µM.

In the case of `COc1cc(/C=C2\[C@@H]3NC(Cc4c(OC)c(C)c(OC)c(OC)c43)C(=O)N2Cc2ccccc2)c(OC)c(C)c1OC`, the TGI is over 100 µM in [1]; 60.7 µM in experiment [2]; over 100 µM in experiment [3]; 55 µM in experiment [4]; over 100 µM in experiment [5]; 36.3 µM in [6]. The same compound came in with a TGI in experiment [7] of 91.4 µM.

With `O=[N+]([O-])c1ccc2c(c1)C(N1CCN(CCO)CC1)Cc1ccc(F)cc1S2` (configuration not stated), the TGI in experiment [1] is 19.3 µM; in experiment [2], 27.3 µM; in experiment [3], 21.4 µM; in [4], 18.3 µM; in experiment [5] it was 54.6 µM; in experiment [8], 37.6 µM. For the same compound, the TGI in [9] was determined as 15.4 µM.

As to `CCC(O)CCCCCCCCCCCCCCC(=O)O` (configuration not stated), the TGI in experiment [1], in experiment [2], in experiment [3], in [4], in [5] and in experiment [6] was over 100 µM throughout. This compound returned a TGI in experiment [7] of over 100 µM.

For the compound `C=CCC1(CN(C)C)CC/C(=C\c2ccc3c(c2)OCO3)C1=O` (configuration not stated), the TGI was over 100 µM in experiment [1]; over 100 µM in experiment [2]; over 100 µM in experiment [3]; 40.2 µM in experiment [4]; over 100 µM in [5]; over 100 µM in experiment [6]. In [7], this compound came in with a TGI of over 100 µM.

As for `CCCCCCCCCCCCCCNCC(OC)OC`, the TGI in [1] is 33.2 µM; in experiment [2], 34.1 µM; in experiment [3], 26.7 µM; in experiment [4] it was 34.2 µM; in [5], 32.6 µM; in [6], 30.9 µM. This compound also displayed a TGI in experiment [7] of 35.3 µM.

For `CC1(c2ccc(F)cc2)C2C(=O)NC(=O)C1C(=O)NC2=O` (configuration not stated), the TGI in experiment [1], in experiment [2], in [3], in experiment [4], in experiment [5] and in experiment [6] was over 100 µM each time. Also, in experiment [7], the TGI was over 100 µM.

These data come from PubChem BioAssay (NCI).
